Experiments:
KM-12 = experiment: NCI60 screen cytotoxicity; type: cell-based; conditions: Homo sapiens, KM12, Colon cancer, read-out: Compound B1 EC50
HT-29 = experiment: NCI60 screen cytotoxicity; type: cell-based; conditions: Homo sapiens, Colon cancer, read-out: Compound B1 EC50
K-562 = experiment: NCI60 screen cytotoxicity; type: cell-based; conditions: Homo sapiens, K562, Leukemia, read-out: Compound B1 EC50
EKVX = experiment: NCI60 screen cytotoxicity; type: cell-based; conditions: Homo sapiens, Lung cancer, read-out: Compound B1 EC50
OVCAR-3 = experiment: NCI60 screen cytotoxicity; type: cell-based; conditions: Homo sapiens, Ovarian cancer, read-out: Compound B1 EC50
OVCAR-8 = experiment: NCI60 screen cytotoxicity; type: cell-based; conditions: Homo sapiens, Ovarian cancer, read-out: Compound B1 EC50
TK-10 = experiment: NCI60 screen cytotoxicity; type: cell-based; conditions: Homo sapiens, Renal cancer, read-out: Compound B1 EC50
MDA-MB-435 = experiment: NCI60 screen cytotoxicity; type: cell-based; conditions: Homo sapiens, Melanoma, read-out: Compound B1 EC50
UACC-257 = experiment: NCI60 screen cytotoxicity; type: cell-based; conditions: Homo sapiens, Melanoma, read-out: Compound B1 EC50
SF-539 = experiment: NCI60 screen cytotoxicity; type: cell-based; conditions: Homo sapiens, CNS, read-out: Compound B1 EC50
SNB-75 = experiment: NCI60 screen cytotoxicity; type: cell-based; conditions: Homo sapiens, CNS, read-out: Compound B1 EC50
[1] = test system: UPR branches (PERK, ATF6 and IRE1alpha); experiment: UPR activation in MM1.S cells (immunoblot, RT-PCR); type: cell-based; conditions: 200 nM
Description: MM1.S cells were treated with 200 nM of Compound B1 for the indicated time points. Following the stated incubation periods the cells were harvested, lysed and resolved on SDS-PAGE gel. Proteins were transferred to PVDF membrane and immunoblotted with the indicated antibodies: FIG. 7A: anti phospho JNK, FIG. 7B: anti JNK, FIG. 7C: anti ATF6. FIG. 7D: anti phospho eIF2alpha, FIG. 7E: anti eIF2alpha, FIG. 7F: anti ATF4. XBP1 splicing was performed on cDNA (FIG. 7G), RNA was extracted cDNA was generated by RT-PCR and XPB1 transcript was amplified by PCR with gene specific primers. Splicing was detected by differential migration of XBP1 transcript on agarose gel. Transcriptional changes of CHOP (FIG. 7K) and ATF4 (FIG. 7J) were estimated by quantitative PCR with gene specific primers. Relative gene expression levels were normalized to GAPDH. Cleaved form of ATF6 and spliced XBP1 is indicated with arrow.
Protein analysis by Western blot. At the end of treatment period, the cells were lysed with M-PER mammalian protein extraction reagent (ThermoFisher Scientific) supplemented with protease inhibitors. Equal protein amounts were resolved on pre-cast SDS-PAGE (ThermoFisher Scientific) and transferred to a PVDF membrane. The membrane was immunoblotted with antibodies as indicated. The following antibodies were used: Ub MAb (SC-8017, Santa-Cruz), ATF4, ATF6, phospho JNK, JNK (Cell signaling); eIF2alpha, phospho eIF2alpha (Novus).
RT-PCR: MM cells were treated with compounds as indicated. Total RNA was extracted using RNAeasy kit (QIAGEN) and cDNA was synthesized using reverse transcriptase (Quantaces biosciences). mRNA levels of ATF4 and CHOP were determined by quantitative PCR using a StepOnePlus™ Real Time PCR system (Life Technologies) with gene specific assays (Thermo Scientific). XBP splicing were addressed by differential migration of XBP-1 gene transcript full size versus spliced form on 2% Agarose gel.

OVCAR-4 = experiment: Cell viability panel, CyQUANT Direct; type: cell-based; conditions: Homo sapiens, Ovarian Cancer, 48 hours, read-out: Compound EC50
Description: (§1) Cell viability panel studies. Cells were diluted in the corresponding ATCC recommended medium and dispensed in a 384-well plate, depending on the cell line used, at a density of 200-6400 cells per well. For each used cell line, the optimal cell density was used. Compound was serially diluted and 8 concentration (0.04-32 μM) were added to the cells for 72 h exposure. At t=end, of ATPlite 1Step™ (PerkinElmer) were used to calculate cell viability. Cell lines marked with asterisk were seeded 24 h prior to treatment in 96-well plates at the density range of 5,000-40,000 cells/well, according to duplication rate, in RPMI 1640 medium containing 10% fetal bovine serum and 2 mM L-glutamine. Compounds were diluted from 10 mM DMSO stock and treatment was applied at the range of 0.04-1 μM. Following incubation at 37° C. for 48 hours with increasing concentrations of the compounds, viability was determined with CyQUANT® Direct Assay Kit (Invitrogen). Output intensities were normalized to values after treatment with DMSO alone, and EC50 values were calculated using the absorbance measurements [time zero, (Tz), growth control, (C), plus the test growth at the four drug concentration levels (Ti)] as follows: [(Ti−Tz)/(C−Tz)]×100 for concentrations for which Ti>/=Tz; [(Ti−Tz)/Tz]×100 for concentrations for which Ti−<Tz.

SK-MEL-2 = experiment: Cell viability panel, CyQUANT Direct; type: cell-based; conditions: Homo sapiens, Melanoma, 48 hours, read-out: Compound EC50
Description: as §1

HCT-116 xenograft = experiment: HCT-116 colorectal flank xenograft in nude mice; type: in vivo; conditions: 8 mg/kg IV, TIW for 21 days
Text: FIG. 6A-6D show the evaluated in-vivo efficacy of Compound AA in a colorectal mouse flank xenograft models (HCT116, SW620). […] HCT-116 or SW620 cells (5×10^6 cells/mouse) were implanted in the rear flank of mail mice (6 weeks of age at the time of tumor implantation). On Day 20-23, mice were randomized for equivalent distribution of tumor volumes to treatment groups (n=5/group) and treated IV with vehicle, Compound AA (FIG. 6A, FIG. 6B) TIW for 21 days. Data are presented as mean tumor volume±SD. Body weight % changes in treated animals observed at end point (FIG. 6C, FIG. 6D). Animal xenograft models. MM1.S, HCT-116, SW620 cell lines were purchased from ATCC and used for xenograft model. The cells were cultured in RPMI medium (Sigma-Aldrich) supplemented with 10% fetal bovine serum (FBS) and divided for up to 5 passages. Shortly prior to injection, cell suspension was mixed with Matrigel at 1:[…]) and injected subcutaneously to the rear flank area of male nude athymic 6 weeks old mice to obtain administration of 5×10^6 cells/animal. On day 20-23, when tumor volume reached 100-150 mm^3, mice were randomized for equivalent distribution of tumor volumes to treatment groups (n=5/group) and treated via intravenous injection.

CN(C)CC(=O)NCC(=O)N1C/C(=C\c2ccc(C#N)cc2)C(=O)/C(=C/c2ccc(C#N)cc2)C1 [Compound B1]
EC50 (KM-12): < 300 nM
EC50 (HT-29): 300 to 1000 nM
EC50 (K-562): < 300 nM
EC50 (EKVX): 300 to 1000 nM
EC50 (OVCAR-3): < 300 nM
EC50 (OVCAR-8): < 300 nM
EC50 (TK-10): 300 to 1000 nM
EC50 (MDA-MB-435): < 300 nM
EC50 (UACC-257): 300 to 1000 nM
EC50 (SF-539): 300 to 1000 nM
EC50 (SNB-75): 300 to 1000 nM
eIF2alpha phosphorylation (PERK activation) ([1]; after 1 hr of treatment): increases eI2Falpha phosphorylation
XBP splicing ([1]; differential migration of XBP gene transcript): Spliced XBP was detected
ATF6 full size form ([1]; immunoblot): short term upregulation of ATF6 full size form followed by a rapid decline
phosphorylated JNK ([1]; immunoblot, no change in total protein levels): significant upregulation in phosphorylated JNK
ATF4 and CHOP transcription (quantitative PCR) ([1]; peaking at 3 hr post treatment): transcriptional increase of both ATF4 and CHOP

CN(C)CCCS(=O)(=O)N1C/C(=C\c2ccc(C#N)cc2)C(=O)/C(=C/c2ccc(C#N)cc2)C1 [Compound AA]
EC50 (OVCAR-4): 300 to 1000 nM
EC50 (SK-MEL-2): < 300 nM
Animal body weight (HCT-116 xenograft): not considerably affected
tumor growth compared to vehicle control (HCT-116 xenograft): significantly inhibited tumor growth

Source: patent US20200399262A1, “COMPOUNDS FOR INHIBITING PROTEIN DEGRADATION AND METHODS OF USE THEREOF IN THE TREATMENT OF CANCER” (PI Therapeutics Ltd, priority 2018, published 2020)
